Laboratory results taken from US10508120B2, “TYK2 inhibitors and uses thereof” (Nimbus Lakshmi, Inc., priority 2017, dated 2019).
Where two headings read alike, the source gives them in different places.

What was measured:
[1] = target: human TYK2 (JH2domain-pseudokinase) (Homo sapiens (Human), UniProt P29597); assay: TYK2 JH2 Domain Binding Assay (KINOMEscan)
How it was run: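 Competition binding of a DNA-tagged fusion of human TYK2 JH2 pseudokinase (G556–D888) with NFkB DNA-binding domain, from HEK293 extracts (<0.1 nM final), against immobilised ligand beads; 1 h shaking at room temperature, 0.9% DMSO. Bound kinase quantified by qPCR.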

Tyk2 kinase domain (DH1) = Tyk2 kinase domain (DH1) (Homo sapiens (Human), UniProt P29597); assay: Tyk2 Radioactive Kinase Assay; format: biochemical; details: for inhibition at 10 µM: read-out: Tyk2 JH1% Inhibition @ 10 μM
How it was run: (§1)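 Each kinase domain is incubated with test compound at 10 μM. Activity is then measured radiometrically and expressed as percent inhibition relative to uninhibited enzyme.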

JAK2 kinase domain (JH1) = JAK2 kinase domain (JH1) (Homo sapiens (Human), UniProt O60674); assay: JAK2 Radioactive Kinase Assay; format: biochemical; details: for inhibition at 10 µM: read-out: JAK2 JH1% Inhibition @ 10 μM
How it was run: as §1

[2] = target: Tyk2/JAK2 (heterodimeric complex) (Homo sapiens (Human), UniProt P29597); assay: IL-12 Induced pSTAT4 in Human PBMC; format: cell-based; details: 1.7 ng/mL IL-12
Text: The IL-12 Induced pSTAT4 assay evaluates the inhibition of IL-12 induced STAT4 phophorylation mediated by Tyk2/JAK2 (heterodimeric complex).

[3] = target: JAK2/JAK2 homdimeric complex (Homo sapiens (Human), UniProt O60674); assay: GM-CSF Induced pSTAT5 in Human PBMC; format: cell-based; details: GM-CSF 5 ng/mL for 20 minutes, pSTAT5 by MSD, read-out: PBMC_GMCSF_pSTAT5 IC50
JAK2/JAK2 homdimeric complex, sequence (O60674 whole entry): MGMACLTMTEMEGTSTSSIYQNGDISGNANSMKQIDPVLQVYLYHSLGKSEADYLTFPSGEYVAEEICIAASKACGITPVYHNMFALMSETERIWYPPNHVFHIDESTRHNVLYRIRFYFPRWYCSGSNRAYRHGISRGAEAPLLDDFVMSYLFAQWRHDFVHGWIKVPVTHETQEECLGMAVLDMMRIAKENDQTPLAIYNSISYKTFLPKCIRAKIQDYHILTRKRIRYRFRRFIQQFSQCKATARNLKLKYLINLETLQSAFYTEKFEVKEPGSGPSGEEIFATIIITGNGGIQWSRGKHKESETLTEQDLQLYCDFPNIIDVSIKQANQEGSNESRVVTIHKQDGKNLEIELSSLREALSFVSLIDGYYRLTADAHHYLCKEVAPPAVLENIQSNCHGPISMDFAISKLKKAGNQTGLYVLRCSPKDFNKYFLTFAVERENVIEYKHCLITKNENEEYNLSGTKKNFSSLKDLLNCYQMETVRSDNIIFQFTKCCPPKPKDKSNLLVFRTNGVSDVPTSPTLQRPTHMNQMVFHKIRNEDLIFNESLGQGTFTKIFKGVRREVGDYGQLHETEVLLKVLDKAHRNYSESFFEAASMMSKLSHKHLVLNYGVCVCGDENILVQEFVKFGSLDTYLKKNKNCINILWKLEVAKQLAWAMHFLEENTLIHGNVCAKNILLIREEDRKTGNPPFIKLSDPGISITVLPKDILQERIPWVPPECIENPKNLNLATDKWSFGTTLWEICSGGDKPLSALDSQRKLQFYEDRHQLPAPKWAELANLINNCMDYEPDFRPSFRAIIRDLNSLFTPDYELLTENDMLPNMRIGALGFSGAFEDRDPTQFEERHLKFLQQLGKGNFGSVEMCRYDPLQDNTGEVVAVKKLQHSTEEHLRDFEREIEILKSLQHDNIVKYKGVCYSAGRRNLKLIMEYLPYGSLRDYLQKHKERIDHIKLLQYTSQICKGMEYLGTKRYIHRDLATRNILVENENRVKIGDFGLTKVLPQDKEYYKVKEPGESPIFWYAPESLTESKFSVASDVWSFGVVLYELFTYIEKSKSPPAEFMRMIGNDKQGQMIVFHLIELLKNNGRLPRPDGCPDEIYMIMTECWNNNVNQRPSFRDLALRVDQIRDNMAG
JAK2/JAK2 homdimeric complex, sequence (P32927 17-897 partner): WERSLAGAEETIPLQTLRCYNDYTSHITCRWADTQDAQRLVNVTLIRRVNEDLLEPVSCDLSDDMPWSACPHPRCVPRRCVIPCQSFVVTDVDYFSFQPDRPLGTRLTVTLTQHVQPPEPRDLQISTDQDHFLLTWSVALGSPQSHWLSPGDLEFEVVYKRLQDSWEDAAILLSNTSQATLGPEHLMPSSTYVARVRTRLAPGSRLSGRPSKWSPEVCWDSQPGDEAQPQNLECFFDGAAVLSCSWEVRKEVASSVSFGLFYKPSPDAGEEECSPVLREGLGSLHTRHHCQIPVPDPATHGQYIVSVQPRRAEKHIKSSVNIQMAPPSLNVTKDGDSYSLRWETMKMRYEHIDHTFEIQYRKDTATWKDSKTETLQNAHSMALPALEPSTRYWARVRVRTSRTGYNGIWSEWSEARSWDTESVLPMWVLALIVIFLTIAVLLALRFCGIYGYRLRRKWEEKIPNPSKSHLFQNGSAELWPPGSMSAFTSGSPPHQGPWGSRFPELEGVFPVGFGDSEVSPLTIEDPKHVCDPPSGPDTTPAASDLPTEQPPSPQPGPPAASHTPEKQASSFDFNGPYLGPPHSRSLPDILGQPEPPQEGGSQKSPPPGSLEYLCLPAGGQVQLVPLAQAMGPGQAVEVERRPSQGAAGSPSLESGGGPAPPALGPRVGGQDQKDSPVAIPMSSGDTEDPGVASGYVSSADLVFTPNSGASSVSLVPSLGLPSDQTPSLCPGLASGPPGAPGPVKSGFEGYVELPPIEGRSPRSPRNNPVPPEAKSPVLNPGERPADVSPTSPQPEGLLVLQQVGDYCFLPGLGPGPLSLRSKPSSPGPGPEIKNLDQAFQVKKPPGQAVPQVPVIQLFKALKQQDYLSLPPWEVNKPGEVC

human TYK2 (JH2domain-pseudokinase), sequence (P29597 556-888): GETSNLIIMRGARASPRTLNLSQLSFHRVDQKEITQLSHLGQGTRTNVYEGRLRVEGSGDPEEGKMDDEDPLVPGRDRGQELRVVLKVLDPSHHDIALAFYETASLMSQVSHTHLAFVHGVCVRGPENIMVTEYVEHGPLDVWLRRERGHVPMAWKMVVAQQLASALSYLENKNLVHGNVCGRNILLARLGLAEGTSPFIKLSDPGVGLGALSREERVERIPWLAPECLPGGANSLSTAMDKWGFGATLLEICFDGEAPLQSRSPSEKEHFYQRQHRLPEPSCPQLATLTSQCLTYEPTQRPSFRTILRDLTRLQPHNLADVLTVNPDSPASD
Tyk2/JAK2 (heterodimeric complex), sequence (P29597 whole entry, other chains not shown): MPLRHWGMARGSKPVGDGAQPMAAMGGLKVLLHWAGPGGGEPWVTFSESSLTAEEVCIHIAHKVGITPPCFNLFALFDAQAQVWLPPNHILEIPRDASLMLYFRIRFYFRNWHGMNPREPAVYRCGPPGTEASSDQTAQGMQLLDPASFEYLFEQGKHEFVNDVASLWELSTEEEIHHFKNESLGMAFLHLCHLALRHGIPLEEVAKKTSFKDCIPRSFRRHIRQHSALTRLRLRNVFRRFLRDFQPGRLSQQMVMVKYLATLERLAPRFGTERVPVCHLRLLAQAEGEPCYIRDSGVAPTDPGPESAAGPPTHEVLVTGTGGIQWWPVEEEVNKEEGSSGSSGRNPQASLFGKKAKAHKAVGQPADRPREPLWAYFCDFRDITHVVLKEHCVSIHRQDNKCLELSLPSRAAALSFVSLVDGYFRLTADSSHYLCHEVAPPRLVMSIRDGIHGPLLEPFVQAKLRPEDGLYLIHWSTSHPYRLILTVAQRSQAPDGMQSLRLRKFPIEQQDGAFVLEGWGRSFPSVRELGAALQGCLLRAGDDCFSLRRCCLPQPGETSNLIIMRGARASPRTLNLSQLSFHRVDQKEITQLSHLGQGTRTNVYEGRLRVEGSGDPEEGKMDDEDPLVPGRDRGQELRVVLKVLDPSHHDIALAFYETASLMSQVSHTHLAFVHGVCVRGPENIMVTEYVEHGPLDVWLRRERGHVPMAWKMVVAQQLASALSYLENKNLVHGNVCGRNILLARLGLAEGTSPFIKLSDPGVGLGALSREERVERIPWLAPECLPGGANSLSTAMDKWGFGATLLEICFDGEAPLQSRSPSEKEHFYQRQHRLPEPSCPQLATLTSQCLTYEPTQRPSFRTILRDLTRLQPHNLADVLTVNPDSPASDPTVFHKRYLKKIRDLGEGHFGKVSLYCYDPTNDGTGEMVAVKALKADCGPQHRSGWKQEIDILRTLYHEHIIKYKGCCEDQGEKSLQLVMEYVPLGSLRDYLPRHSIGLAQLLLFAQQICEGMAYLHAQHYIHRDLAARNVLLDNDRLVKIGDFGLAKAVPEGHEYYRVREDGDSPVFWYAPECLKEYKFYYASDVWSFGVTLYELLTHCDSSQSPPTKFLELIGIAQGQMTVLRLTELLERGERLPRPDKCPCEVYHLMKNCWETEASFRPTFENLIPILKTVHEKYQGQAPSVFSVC
Tyk2 kinase domain (DH1), sequence (P29597 897-1176): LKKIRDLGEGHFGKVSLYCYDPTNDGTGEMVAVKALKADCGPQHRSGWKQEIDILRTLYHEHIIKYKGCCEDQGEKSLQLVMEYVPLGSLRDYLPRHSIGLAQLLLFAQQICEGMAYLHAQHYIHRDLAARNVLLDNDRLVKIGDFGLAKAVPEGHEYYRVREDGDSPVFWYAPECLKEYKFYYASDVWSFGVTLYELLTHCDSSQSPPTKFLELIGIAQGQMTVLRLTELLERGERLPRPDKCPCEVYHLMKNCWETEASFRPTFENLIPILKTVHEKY
JAK2 kinase domain (JH1), sequence (O60674 849-1124): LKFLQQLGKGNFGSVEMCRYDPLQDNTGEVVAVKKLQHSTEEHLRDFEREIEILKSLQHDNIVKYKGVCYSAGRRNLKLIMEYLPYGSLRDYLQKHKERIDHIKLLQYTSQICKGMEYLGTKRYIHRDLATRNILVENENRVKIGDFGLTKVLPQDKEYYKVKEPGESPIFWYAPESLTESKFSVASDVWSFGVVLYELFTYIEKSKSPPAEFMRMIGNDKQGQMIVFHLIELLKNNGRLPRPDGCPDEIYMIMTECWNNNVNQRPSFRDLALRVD

Row | Compound | Kd [1] [µM] | inhibition at 10 µM (Tyk2 kinase domain (DH1); compound at 10 μM, ATP 10 μM) [%] | inhibition at 10 µM (JAK2 kinase domain (JH1); compound at 10 μM, ATP 10 μM) [%] | IC50 [2] [µM] | IC50 [3] [µM] | inhibition at 10 µM (Tyk2 kinase domain (DH1); 10 μM compound, 10 μM ATP) [%] | inhibition at 10 µM (JAK2 kinase domain (JH1); 10 μM compound, 10 μM ATP) [%] | Tyk2 JH1% Inhibition @ 10 μM (Tyk2 kinase domain (DH1); compound at 10 μM, ATP 10 μM) | JAK2 JH1% Inhibition @ 10 μM (JAK2 kinase domain (JH1); compound at 10 μM, ATP 10 μM)
1 | CNc1cc(Nc2cccc3ocnc23)nc2c(C(=O)N[C@@H]3CC[C@H]3O)cnn12 (racemic) [I-756, 5-(benzo[d]oxazol-4-ylamino)-N-(2-hydroxycyclobutyl)-7-(methylamino) pyrazolo[1,5-a]pyrimidine-3-carboxamide] | < 0.0002 | < 50 | < 50 | 0.1 to 0.5 | > 50 |  |  |  | 
2 | [2H]C([2H])([2H])Nc1cc(Nc2cccnc2OC2CC2)nc2c(C(=O)N[C@@H]3C[C@@H]3F)cnn12 (stereo in doubt) [I-375, 5-((2-cyclopropoxypyridin-3-yl)amino)-N-((1R,2S)-2-fluorocyclopropyl)-7-((methyl-d3)amino)pyrazolo[1,5-a]pyrimidine-3-carboxamide] | < 0.0002 | < 50 | 50 to 70 | < 0.1 | > 50 |  |  |  | 
3 | CNc1cc(Nc2cccn(-c3ccn(C4CC4)n3)c2=O)nc2c(C(=O)N[C@@H]3C[C@@H]3F)cnn12 (stereo in doubt) [I-106, 5-((1-(1-cyclopropyl-1H-pyrazol-3-yl)-2-oxo-1,2-dihydropyridin-3-yl)amino)-N-((1R,2S)-2-fluorocyclopropyl)-7-(methylamino)pyrazolo[1,5-a]pyrimidine-3-carboxamide] | < 0.0002 | < 50 | < 50 | < 0.1 | > 12.5 |  |  |  | 
4 | CNc1cc(Nc2cccn(CC3CCCCO3)c2=O)nc2c(C(=O)N[C@H]3C[C@H]3F)cnn12 (stereo partly shown) [I-365] | < 0.0002 | < 50 | < 50 | < 0.1 | > 50 |  |  |  | 
5 | CNc1cc(Nc2cccn([C@H]3CCCOC3)c2=O)nc2c(C(=O)N[C@@H]3CC[C@H]3O)cnn12 [I-725] | < 0.0002 | < 50 | < 50 | < 0.1 | > 2.5 |  |  |  | 
6 | CNc1cc(Nc2cc(C)cn(-c3cnn(C)c3)c2=O)nc2c(C(=O)N[C@H]3C[C@H]3F)cnn12 [I-235] | < 0.0002 | < 50 | < 50 | < 0.1 | > 2.5 |  |  |  | 
7 | CNc1cc(Nc2cccn3ccnc23)nc2c(C(=O)NC3CC3)cnn12 [I-891] | < 0.0002 |  |  | < 0.1 | > 50 | < 50 | < 50 |  | 
8 | CNc1cc(Nc2cccnc2OC)nc2c(C(=O)NCC(C)(C)CO)cnn12 [I-346] | < 0.0002 | < 50 | < 50 | < 0.1 | > 2.5 |  |  |  | 
9 | CNc1cc(Nc2cccn([C@H]3CC[C@H](OC)CC3)c2=O)nc2c(C(=O)N[C@H]3C[C@H]3F)cnn12 [I-344] | < 0.0002 | < 50 | < 50 | < 0.1 | > 12.5 |  |  |  | 
10 | CNc1cc(Nc2cccn(-c3cn(C)nc3F)c2=O)nc2c(C(=O)NC3CC3)cnn12 [I-606] | < 0.0002 | < 50 | < 50 | 0.1 to 0.5 | > 12.5 |  |  |  | 
11 | CNc1cc(Nc2cccn(-c3nc(C)c(C)s3)c2=O)nc2c(C(=O)N[C@H]3C[C@H]3F)cnn12 [I-292] | 0.0002 to 0.001 | < 50 | < 50 | < 0.1 | > 2.5 |  |  |  | 
12 | CNc1cc(Nc2cccnc2OC2CC2)nc2c(C(=O)N[C@H]3COC[C@H]3O)cnn12 [I-547] | < 0.0002 | < 50 | < 50 | 0.1 to 0.5 | > 50 |  |  |  | 
13 | CNc1cc(-c2cn(CCN3CCOCC3)c3ncccc23)nc2c(C(=O)N[C@H]3CC[C@@H]3OC)cnn12 [I-886] | < 0.0002 |  |  | < 0.1 | > 0.3 | < 50 | < 50 |  | 
14 | CNc1cc(Nc2cccc3ocnc23)nc2c(C(=O)N[C@@H]3CC[C@@H]3O)cnn12 [I-661] | < 0.0002 | < 50 | < 50 | < 0.1 | > 12.5 |  |  |  | 
15 | CNc1cc(Nc2cccn(-c3cc(C)n(C)n3)c2=O)nc2c(C(=O)N[C@H]3C[C@H]3F)cnn12 [I-137] | < 0.0002 | < 50 | < 50 | < 0.1 | > 50 |  |  |  | 
16 | CNc1cc(Nc2cc(C)cn(-c3cnn(C)c3)c2=O)nc2c(C(N)=O)cnn12 [I-31] | < 0.0002 | < 50 | < 50 | 0.1 to 0.5 | > 0.3 |  |  |  | 
17 | CNc1cc(Nc2cccnc2OC)nc2c(C(=O)NCC3(CO)CC3)cnn12 [I-425] | < 0.0002 | < 50 | < 50 | < 0.1 | > 50 |  |  |  | 
18 | CNc1cc(Nc2cc(Cl)cn([C@@H]3CCCN(C)C3)c2=O)nc2c(C(=O)NC3CC3)cnn12 [I-819] | < 0.0002 |  |  | < 0.1 | > 50 | < 50 | < 50 |  | 
19 | CNc1cc(Nc2cc(C)cn(-c3ccn(C)n3)c2=O)nc2c(C(=O)N[C@H]3C[C@H]3F)cnn12 [I-250] | < 0.0002 | < 50 | < 50 | < 0.1 | > 12.5 |  |  |  | 
20 | CNc1cc(Nc2cccn([C@H]3CCCOC3)c2=O)nc2c(C(=O)NC3CC3)cnn12 [I-352] | < 0.0002 | < 50 | < 50 | < 0.1 | > 50 |  |  |  | 
21 | [2H]C([2H])([2H])Oc1ncccc1Nc1cc(NC)n2ncc(C(=O)N[C@H]3CC[C@@H]3O)c2n1 [I-411] | < 0.0002 |  |  | < 0.1 | > 50 |  |  | A (percent inhibition at 10 μM lower than 50) | A (percent inhibition at 10 μM lower than 50)
22 | CNc1cc(Nc2cc(F)cn(-c3ccn(C)n3)c2=O)nc2c(C(=O)N[C@H]3C[C@H]3F)cnn12 [I-379] | < 0.0002 | < 50 | < 50 | < 0.1 | > 2.5 |  |  |  | 
23 | CNc1cc(Nc2cccn(-c3cnc(C(=O)N(C)C)cn3)c2=O)nc2c(C(=O)NC3CC3)cnn12 [I-127, N-cyclopropyl-5-((1-(5-(dimethylcarbamoyl)pyrazin-2-yl)-2-oxo-1,2-dihydropyridin-3-yl)amino)-7-(methylamino)pyrazolo[1,5-a]pyrimidine-3-carboxamide] | < 0.0002 | < 50 | < 50 | < 0.1 | > 12.5 |  |  |  | 
24 | CNc1cc(Nc2cc(Cl)cn(-c3ncc(C)s3)c2=O)nc2c(C(=O)N[C@H]3C[C@H]3F)cnn12 [I-323] | < 0.0002 | < 50 | < 50 | < 0.1 | > 2.5 |  |  |  | 
25 | CNc1cc(Nc2cc(C)cn(-c3cnn(C)c3)c2=O)nc2c(C(=O)NC3CCC3)cnn12 [I-234] | < 0.0002 | < 50 | < 50 | < 0.1 | > 2.5 |  |  |  | 
26 | [2H]C([2H])([2H])Oc1ncccc1Nc1cc(NC)n2ncc(C(=O)N[C@@H]3CC[C@H]3O)c2n1 [I-410] | < 0.0002 | < 50 | 50 to 70 | < 0.1 | > 12.5 |  |  |  | 
